Data from patent publication US4077981A, “Certain 1-alkyl-2-dichlorophenyliminopyrrolidines” (Bayer Aktiengesellschaft, priority 1968, dated 1978).

Assays:
Boophilus, Biarra strain = test: In-vitro test for ovicidal and adulticidal effect on ticks; design: species or system Boophilus microplus
Protocol: In-vitro test for ovicidal and adulticidal effect on ticks
The ovicidal effect is determined as stated in Example 1.
In addition, the adulticidal effectiveness of the preparation of the given active compound after 24 hours is determined by ascertaining the voluntary movement of limbs and bodies of the immersed adult ticks after stimulation with a fine needle compared with the voluntary movement of limbs and bodies of the untreated adult ticks. The effectiveness is stated in %, 100% meaning that no movements of any kind of the limbs and bodies were any longer detectable, and 0% signifying that the ticks moved limbs and bodies in normal manner.
The results below were obtained in a similar manner to those in accordance with Example 4.

[1] = system: Boophilus microplus, Biarra strain (resistant); test: In-vitro test for ovicidal effect on ticks (Biarra strain); conditions: for Ovicidal effect: 100% inhibition with the stated concentration of active compound: Table 2, concentration giving 100% inhibition; for Ovicidal effect: >50% inhibition with the stated concentration of active compound: Table 2, concentration giving >50% inhibition
Protocol: In-vitro Test for Ovicidal Effect on Ticks
The emulsion concentrate so obtained is diluted with water to the application concentration desired in each case.
After immersion of, in each case, 10 female specimens of the various strains of ticks, the individual ticks are transferred to plastic dishes, the bottom of each of which is covered with a disc of filter paper.

[2] = Table 4, concentration giving 50% inhibition
[3] = Table 4, concentration giving 100% inhibition
[4] = Table 5, concentration giving 50% inhibition
[5] = Table 5, concentration giving 100% inhibition

Row | Structure (SMILES) | Adulticidal and ovicidal effect: 50% inhibition with the stated concentration of active compound (Boophilus, Biarra strain; [2]) | Adulticidal and ovicidal effect: 100% inhibition with the stated concentration of active compound (Boophilus, Biarra strain; [3]) | Adulticidal and ovicidal effect: 50% inhibition with the stated concentration of active compound (Boophilus, Biarra strain; [4]) | Adulticidal and ovicidal effect: 100% inhibition with the stated concentration of active compound (Boophilus, Biarra strain; [5]) | other results
1 | C=CCN1CCCC1=Nc1ccc(Br)c(Br)c1 | 0.05 % by weight | 0.1 % by weight | – | – | –
2 | CCCCN1CCCC1=Nc1ccc(F)c(Cl)c1 | 0.03 % by weight | 0.1 % by weight | – | – | –
3 | CCCN1CCCC1=Nc1ccc(F)c(Cl)c1 | 0.03 % by weight | 0.1 % by weight | – | – | –
4 | C=CCN1CCCC1=Nc1ccc(F)c(Cl)c1 | 0.08 % by weight | 0.1 % by weight | – | – | –
5 | CCN1CCCC1=Nc1ccc(F)c(Cl)c1 | 0.1 % by weight | 0.3 % by weight | – | – | –
6 | C=CCN1CCCC1=Nc1ccc(Cl)c(Br)c1 | 0.05 % by weight | 0.1 % by weight | – | – | –
7 | CCCCN1CCCC1=Nc1ccc(Cl)c(Br)c1 | 0.03 % by weight | 0.1 % by weight | – | – | –
8 | CCCN1CCCC1=Nc1ccc(Cl)c(Br)c1 | 0.1 % by weight | 0.3 % by weight | – | – | –
9 | CCN1CCCC1=Nc1ccc(Cl)c(Br)c1 | 0.05 % by weight | 0.1 % by weight | – | – | –
10 | CC=CCN1CCCC1=Nc1ccc(Cl)c(Cl)c1 | 0.03 % by weight | 0.01 % by weight | – | – | –
11 | C=CCN1CCCC1=Nc1ccc(Cl)c(C)c1 | 0.02 % by weight | 0.03 % by weight | – | – | –
12 | C=CCN1CCCC1=Nc1ccc(C)c(Cl)c1 | 0.01 % by weight | 0.03 % by weight | – | – | –
13 | CC=CCN1CCCC1=Nc1cc(Cl)c(Cl)cc1Cl | – | – | 0.03 % by weight | 0.1 % by weight | –
14 | CC=CCN1CCCC1=Nc1ccc(C)c(Cl)c1 | – | – | 0.008 % by weight | 0.1 % by weight | –
15 | CC=CCN1CCCC1=Nc1ccc(Cl)c(C)c1 | – | – | 0.02 % by weight | 0.03 % by weight | –
16 | CC=CCN1CCCC1=Nc1ccc(Cl)cc1C | – | – | 0.008 % by weight | 0.01 % by weight | –
17 | C=C(C)CN1CCCC1=Nc1ccc(Cl)c(Cl)c1 | – | – | 0.03 % by weight | 0.1 % by weight | –
18 | C=C(C)CN1CCCC1=Nc1ccc(Cl)cc1Cl | – | – | 0.01 % by weight | 0.03 % by weight | –

Row | Structure (SMILES) | Adulticidal and ovicidal effect: 50% inhibition with the stated concentration of active compound (Boophilus, Biarra strain; [2]) | Adulticidal and ovicidal effect: 100% inhibition with the stated concentration of active compound (Boophilus, Biarra strain; [3]) | Adulticidal and ovicidal effect: 50% inhibition with the stated concentration of active compound (Boophilus, Biarra strain; [4]) | Adulticidal and ovicidal effect: 100% inhibition with the stated concentration of active compound (Boophilus, Biarra strain; [5]) | other results
19 | C=C(C)CN1CCCC1=Nc1cc(Cl)c(Cl)cc1Cl | – | – | 0.1 % by weight | 0.3 % by weight | –
20 | C=C(C)CN1CCCC1=Nc1ccc(Cl)cc1C | – | – | 0.02 % by weight | 0.03 % by weight | –
21 | C=C(C)CN1CCCC1=Nc1ccc(C)c(Cl)c1 | – | – | 0.03 % by weight | 0.1 % by weight | –
22 | C=C(C)CN1CCCC1=Nc1ccc(Cl)c(C)c1 | – | – | 0.01 % by weight | 0.1 % by weight | –
23 | C=CCCN1CCCC1=Nc1ccc(Cl)c(Cl)c1 | – | – | 0.1 % by weight | 0.3 % by weight | –
24 | C=CCCN1CCCC1=Nc1ccc(C)c(Cl)c1 | – | – | 0.02 % by weight | 0.03 % by weight | –
25 | C=CCCN1CCCC1=Nc1ccc(Cl)cc1C | – | – | 0.008 % by weight | 0.01 % by weight | –
26 | C=CCN1CCCC1=Nc1ccc(C)c(Br)c1 | – | – | 0.03 % by weight | 0.1 % by weight | –
27 | CCCCN1CCCC1=Nc1ccc(C)c(Br)c1 | – | – | 0.02 % by weight | 0.03 % by weight | –
28 | C=CCN1CCCC1=Nc1ccc(Br)c(C)c1 | – | – | 0.03 % by weight | 0.1 % by weight | –
29 | CCCCN1CCCC1=Nc1ccc(Br)c(C)c1 | – | – | 0.05 % by weight | 0.1 % by weight | –
30 | CCCCN1CCCC1=Nc1ccc(Br)c(Cl)c1 [Compound 421] | – | – | – | – | Ovicidal effect: 100% inhibition with the stated concentration of active compound [1]: 0.3 % by weight; Ovicidal effect: >50% inhibition with the stated concentration of active compound [1]: 0.2 % by weight
31 | C=CCN1CCCC1=Nc1ccc(Br)cc1C [Compound 431] | – | – | – | – | Ovicidal effect: 100% inhibition with the stated concentration of active compound [1]: 0.1 % by weight; Ovicidal effect: >50% inhibition with the stated concentration of active compound [1]: 0.03 % by weight
32 | C=CCN1CCCC1=Nc1ccc(Br)cc1CC [Compound 441] | – | – | – | – | Ovicidal effect: 100% inhibition with the stated concentration of active compound [1]: 0.3 % by weight; Ovicidal effect: >50% inhibition with the stated concentration of active compound [1]: 0.1 % by weight
33 | C=CCN1CCCC1=Nc1ccc(Cl)cc1Br [Compound 451] | – | – | – | – | Ovicidal effect: 100% inhibition with the stated concentration of active compound [1]: 0.1 % by weight; Ovicidal effect: >50% inhibition with the stated concentration of active compound [1]: 0.01 % by weight
34 | CCCCN1CCCC1=Nc1ccc(Br)cc1C [Compound 461] | – | – | – | – | Ovicidal effect: 100% inhibition with the stated concentration of active compound [1]: 0.3 % by weight; Ovicidal effect: >50% inhibition with the stated concentration of active compound [1]: 0.2 % by weight
35 | C=CCN1CCCC1=Nc1ccc(F)c(Br)c1 [Compound 471] | – | – | – | – | Ovicidal effect: 100% inhibition with the stated concentration of active compound [1]: 0.1 % by weight; Ovicidal effect: >50% inhibition with the stated concentration of active compound [1]: 0.08 % by weight
